Publication PMC8508980, “Design, Synthesis and Anticancer Profile of New 4-(1H-benzo[d]imidazol-1-yl)pyrimidin-2-amine-Linked Sulfonamide Derivatives with V600EBRAF Inhibitory Effect” (International Journal of Molecular Sciences, 2021)

Assays:
Test in all cases: NCI 60 cell line screen
Assay type in all cases: cell-based
A498 = settings: Homo sapiens; A498, Renal Cancer; read-out: Percent growth
Method: (§1) Anticancer profiling over a panel of 60 cancer cell lines was carried out at the National Cancer Institute (NCI), Bethesda, Maryland, USA, https://dtp.cancer.gov/discovery_development/nci-60/methodology.htm (Last visit 22 September 2021), using the standard procedure (detailed procedure is located in the Supplementary Information page 50 s).
(§2) NCI standard procedure for 60 cell lines assay
(§3) The human tumor cell lines of the cancer screening panel are grown in RPMI 1640 mediu m containing 5% fetal bovine serum and 2 mM L-glutamine. For a typical screening experiment, cells are inoculated into 96 well microtiter plates in 100 μL at plating densities ranging from 5,000 to 40,000 cells/well depending on the doubling time of individual cell lines. After cell inoculation, the microtiter plates are incubated at 37° C, 5 % CO2, 95 % air and 100 % relative humidity for 24 h prior to addition of experimental drugs.
(§4) After 24 h, two plates of each cell line are fixed in situ with TCA, to represent a measurement of the cell population for each cell line at the time of drug addition (Tz). Experimental drugs are solubilized in dimethyl sulfoxide at 400-fold the desired final maximum test concentration (10 µM) and stored frozen prior to use. At the time of drug addition, an aliquot of frozen concentrate is thawed and diluted to twice the desired final maximum test concentration with co mp lete medium containing 50 μg/ml gentamicin. Additional four, 10-fold or ½ log serial dilutions are made to provide a total of five drug concentrations plus control. Aliquots of 100 μl of these different drug dilutions are added to the appropriate microtiter wells already containing 100 μl of medium, resulting in the required final drug concentrations.
(§5) Following drug addition, the plates are incubated for an additional 48 h at 37°C, 5 % CO2, 95 % air, and 100 % relative humidity. For adherent cells, the assay is terminated by the addition of cold TCA. Cells are fixed in situ by the gentle addition of 50 μl of cold 50 % (w/v) TCA (final concentration, 10 % TCA) and incubated for 60 minutes at 4°C. The supernatant is discarded, and the plates are washed five times with tap water and air dried. Sulforhodamine B (SRB) solution (100 μl) at 0.4 % (w/v) in 1 % acetic acid is added to each well, and plates are incubated for 10 minutes at room temperature. After staining, unbound dye is removed by washing five times with 1 % acetic acid and the plates are air dried. Bound stain is subsequently solubilized with 10 mM trizma base, and the absorbance is read on an automated plate reader at a wavelength of 515 nm. For suspension cells, the methodology is the same except that the assay is terminated by fixing settled cells at the bottom of the wells by g ently adding 50 μl of 80 % TCA (final concentration, 16 % TCA). Using the seven absorbance measurements [time zero, (Tz), control growth, (C), and test growth in the presence of drug at the five concentration levels (Ti)], the percentage growth is calculated at each of the drug concentrations levels. Percentage growth inhibition is calculated as:
(§6) [(Ti-Tz)/(C-Tz)] x 100 for concentrations for which Ti>/=Tz
(§7) [(Ti-Tz)/Tz] x 100 for concentrations for which Ti<Tz.
(§8) Three dose response parameters are calculated for each experimental agent. Growth inhibition of […]
(§9) resulting in a 50% reduction in the net protein increase (as measured by SRB staining) in control cells during the drug incubation. The drug concentration resulting in total growth inhibition […]
(§10) (TGI) is calculated from Ti = Tz.

A549/ATCC = settings: Homo sapiens, Non-Small Cell Lung Cancer, read-out: Percent growth
Method: as §1, §2, §3, §4, §5, §6, §7, §8, §9, §10

ACHN = settings: Homo sapiens, Renal Cancer, read-out: Percent growth
Method: as §1, §2, §3, §4, §5, §6, §7, §8, §9, §10

BT-549 = settings: Homo sapiens; BT-549, Breast Cancer; read-out: Percent growth
Method: as §1, §2, §3, §4, §5, §6, §7, §8, §9, §10

CCRF-CEM = settings: Homo sapiens, Leukemia, read-out: Percent growth
Method: as §1, §2, §3, §4, §5, §6, §7, §8, §9, §10

COLO 205 = settings: Homo sapiens; COLO 205, Colon Cancer; read-out: Percent growth
Method: as §1, §2, §3, §4, §5, §6, §7, §8, §9, §10

HCC-2998 = settings: Homo sapiens; HCC-2998, Colon Cancer; read-out: Percent growth
Method: as §1, §2, §3, §4, §5, §6, §7, §8, §9, §10

HL-60(TB) = settings: Homo sapiens, Leukemia, read-out: Percent growth
Method: as §1, §2, §3, §4, §5, §6, §7, §8, §9, §10

HOP-62 = settings: Homo sapiens; HOP-62, Non-Small Cell Lung Cancer; read-out: Percent growth
Method: as §1, §2, §3, §4, §5, §6, §7, §8, §9, §10

HS 578T = settings: Homo sapiens, Breast Cancer, read-out: Percent growth
Method: as §1, §2, §3, §4, §5, §6, §7, §8, §9, §10

IGROV1 = settings: Homo sapiens, IGROV-1; IGROV1, Ovarian Cancer; read-out: Percent growth
Method: as §1, §2, §3, §4, §5, §6, §7, §8, §9, §10

LOX IMVI = settings: Homo sapiens, Melanoma, read-out: Percent growth
Method: as §1, §2, §3, §4, §5, §6, §7, §8, §9, §10

MALME-3M = settings: Homo sapiens, Melanoma, read-out: Percent growth
Method: as §1, §2, §3, §4, §5, §6, §7, §8, §9, §10

MCF7 = settings: Homo sapiens; MCF7, Breast Cancer; read-out: Percent growth
Method: as §1, §2, §3, §4, §5, §6, §7, §8, §9, §10

MDA-MB-231/ATCC = settings: Homo sapiens, Breast Cancer, read-out: Percent growth
Method: as §1, §2, §3, §4, §5, §6, §7, §8, §9, §10

NCI-H322M = settings: Homo sapiens, Non-Small Cell Lung Cancer, read-out: Percent growth
Method: as §1, §2, §3, §4, §5, §6, §7, §8, §9, §10

OVCAR-5 = settings: Homo sapiens; OVCAR-5, Ovarian Cancer; read-out: Percent growth
Method: as §1, §2, §3, §4, §5, §6, §7, §8, §9, §10

OVCAR-8 = settings: Homo sapiens; OVCAR-8, Ovarian Cancer; read-out: Percent growth
Method: as §1, §2, §3, §4, §5, §6, §7, §8, §9, §10

SF-539 = settings: Homo sapiens; SF-539, CNS-Cancer; read-out: Percent growth
Method: as §1, §2, §3, §4, §5, §6, §7, §8, §9, §10

SK-MEL-2 = settings: Homo sapiens; SK-MEL-2, Melanoma; read-out: Percent growth
Method: as §1, §2, §3, §4, §5, §6, §7, §8, §9, §10

SN12C = settings: Homo sapiens, Renal Cancer, read-out: Percent growth
Method: as §1, §2, §3, §4, §5, §6, §7, §8, §9, §10

SW-620 = settings: Homo sapiens; SW-620, Colon Cancer; read-out: Percent growth
Method: as §1, §2, §3, §4, §5, §6, §7, §8, §9, §10

TK-10 = settings: Homo sapiens; TK-10, Renal Cancer; read-out: Percent growth
Method: as §1, §2, §3, §4, §5, §6, §7, §8, §9, §10

UACC-62 = settings: Homo sapiens; UACC-62, Melanoma; read-out: Percent growth
Method: as §1, §2, §3, §4, §5, §6, §7, §8, §9, §10

Row | Structure (SMILES) | activity at 10 µM (A498) | activity at 10 µM (A549/ATCC) | activity at 10 µM (ACHN) | activity at 10 µM (BT-549) | activity at 10 µM (CCRF-CEM) | activity at 10 µM (COLO 205) | activity at 10 µM (HCC-2998) | activity at 10 µM (HL-60(TB)) | activity at 10 µM (HOP-62) | activity at 10 µM (HS 578T) | activity at 10 µM (IGROV1) | activity at 10 µM (LOX IMVI) | activity at 10 µM (MALME-3M) | activity at 10 µM (MCF7) | activity at 10 µM (MDA-MB-231/ATCC) | activity at 10 µM (NCI-H322M) | activity at 10 µM (OVCAR-5) | activity at 10 µM (OVCAR-8) | activity at 10 µM (SF-539) | activity at 10 µM (SK-MEL-2) | also measured
1 | COc1ccc(S(=O)(=O)NCCCNc2nccc(-n3cnc4ccccc43)n2)cc1 [12m, N-(3-((4-(1H-benzo [d]imidazol-1-yl)pyrimidin-2-yl)amino)propyl)-4-methoxy benzenesulfonamide] | 81.9% | 106% | 88.2% | 92.9% | 91.4% | 108% | 111% | 110% | 94.8% | 84.8% | 91.5% | 93.4% | 107% | 85.1% | 84.1% | 104% | 99.6% | 93.7% | 83.9% | 103% | activity at 10 µM (SN12C): 92.4%; activity at 10 µM (SW-620): 104%; activity at 10 µM (TK-10): 103%; activity at 10 µM (UACC-62): 76.3%
2 | O=S(=O)(NCCNc1nccc(-n2cnc3ccccc32)n1)c1ccc(Br)cc1 [12d, N-(2-((4-(1H-benzo [d]imidazol-1-yl)pyrimidin-2-yl)amino)ethyl)-4-bromobenzenesulfonamide] | 76.3% | 100% | 93.6% | 115% | 101% | 107% | 103% | 114% | 87.2% | 85.7% | 90.7% | 99.1% | 103% | 78.4% | 88.2% | 107% | 94% | 95.6% | 96.2% | 108% | activity at 10 µM (SN12C): 91.5%; activity at 10 µM (SW-620): 110%; activity at 10 µM (TK-10): 103%; activity at 10 µM (UACC-62): 82.8%
3 | COc1ccc(S(=O)(=O)NCCNc2nccc(-n3cnc4ccccc43)n2)cc1 [12f, N-(2-((4-(1H-benzo [d]imidazol-1-yl)pyrimidin-2-yl)amino)ethyl)-4-methoxy benzenesulfonamide] | 82.9% | 94.6% | 97.1% | 97.8% | 102% | 99.8% | 99.7% | 106% | 94.6% | 84.1% | 89% | 91.7% | 91.7% | 86.2% | 92.1% | 92.6% | 93.9% | 91.5% | 96.2% | 106% | activity at 10 µM (SN12C): 88.5%; activity at 10 µM (SW-620): 103%; activity at 10 µM (TK-10): 92.5%; activity at 10 µM (UACC-62): 76.6%
